Experimental findings from patent publication US7939519B2, “Immunosuppresant compounds and compositions” (Novartis AG, priority 2003, dated 2011) are described below.

One assay deals with blood lymphocytes. The experiment in a line: Measurement of circulating lymphocytes (blood lymphocyte depletion) in mice. The class given is in vivo, Mice (C57bl/6). The note with it: Mus musculus, oral gavage, blood collected 6 and 24 hours after administration, read-out: ED50, effective dose required displaying 50% of blood lymphocyte depletion. As for the experimental part:
C. In Vivo: Screening Assays for Measurement of Blood Lymphocyte Depletion and Assessment of Heart Effect
Measurement of circulating lymphocytes: Compounds are dissolved in DMSO and diluted to obtain a final concentration of 4% DMSO (v/v, final concentration) and then further diluted in a constant volume of Tween80 25%/H2O, v/v. Tween80 25%/H2O (200 μl), 4% DMSO, and FTY720 (10 μg) are included as negative and positive controls, respectively. Mice (C57bl/6 male, 6-10 week-old) are administered 250-300 μL of compound solution orally by gavages under short isoflurane anesthesia.
Blood is collected from the retro-orbital sinus 6 and 24 hours after drug administration under short isoflurane anesthesia. Whole blood samples are subjected to hematology analysis. Peripheral lymphocyte counts are determined using an automated analyzer. Subpopulations of peripheral blood lymphocytes are stained by fluorochrome-conjugated specific antibodies and analyzed using a fluorescent activating cell sorter (Facscalibur). Two mice are used to assess the lymphocyte depletion activity of each compound screened. The result is an ED50, which is defined as the effective dose required displaying 50% of blood lymphocyte depletion.

A further assay concerns the target T1, human EDG-1 (S1P1) (Homo sapiens, UniProt P21453).
T1 construct: expressed in transfected cells
The experiment in a line: GTP [γ-35S] binding assay, membranes from CHO cells expressing human EDG-1. The class given is biochemical. The note with it: EDG-1 GTP [γ-35S] binding, CHO cell membranes. The procedure: A. In Vitro: GPCR Activation Assay Measuring GTP [γ-^35S] Binding to Membranes Prepared from Cho Cells Expressing Human EDG Receptors
EDG-1 (S1P1) GTP [γ-^35S] binding assay: Homogenized membranes are prepared from CHO cell clones stably expressing a human EDG-1 N-terminal c-myc tag. Cells are grown in suspension in two 850 cm^2 roller bottles for three or fours days before harvesting. The cells are centrifuged down, washed once with cold PBS, and resuspended in ≦20 ml of Buffer A (20 mM HEPES, pH 7.4, 10 mM EDTA, EDTA-free complete protease inhibitor cocktail [1 tablet/25 ml]). The cell suspension is homogenized on ice, using a Polytron homogenizer at 30000 rpm at three intervals of 15 seconds each. The homogenate is first centrifuged at 2000 rpm on a tabletop low speed centrifuge for 10 minutes. The supernatant, after passing through a cell strainer, is then re-centrifuged at 50,000×g for 25 minutes at 4° C. The pellet is resuspended into buffer B (15% glycerol, 20 mM HEPES, pH 7.4, 0.1 mM EDTA, EDTA-free complete protease inhibitor cocktail [1 tablet/10 ml]). Protein concentration of the prep is determined using the BCA Protein Assay kit (Pierce) using BSA as standard. The membranes are aliquoted and kept frozen at −80° C.
Solutions of test compounds ranging from 10 mM to 0.01 nM are prepared in DMSO. S1P is diluted in 4% BSA solution as positive controls. […]

T1 sequence (P21453 whole entry): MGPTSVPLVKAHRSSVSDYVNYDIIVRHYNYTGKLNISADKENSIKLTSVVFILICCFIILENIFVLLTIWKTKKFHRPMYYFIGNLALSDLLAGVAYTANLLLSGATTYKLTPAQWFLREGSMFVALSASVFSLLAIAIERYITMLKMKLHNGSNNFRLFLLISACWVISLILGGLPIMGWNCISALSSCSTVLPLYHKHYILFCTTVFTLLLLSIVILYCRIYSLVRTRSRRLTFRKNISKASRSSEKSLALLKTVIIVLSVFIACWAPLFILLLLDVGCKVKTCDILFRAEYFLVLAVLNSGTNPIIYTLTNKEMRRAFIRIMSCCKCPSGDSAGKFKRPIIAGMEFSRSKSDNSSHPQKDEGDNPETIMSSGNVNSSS

With `CCc1cc(/C(C)=N/OCc2ccc(C3CCCCC3)c(C(F)(F)F)c2)ccc1CN1CC(C(=O)O)C1` [Example 3, 1-{4-[1-(4-Cyclohexyl-3-trifluoromethyl-benzyloxyimino)-ethyl]-2-ethyl-benzyl}-azetidine-3-carboxylic acid], in the assay with blood lymphocytes, the ED50 stood at 0.1 mg/kg. The same compound displayed an EC50 at human EDG-1 (S1P1) of 0.2 nM.
Take `CCc1cc(/C(C)=N/OCc2ccc(C3CCCCC3)c(C(F)(F)F)c2)ccc1CNCCC(=O)O` [Example 2, 3-{4-[1-(4-Cyclohexyl-3-trifluoromethyl-benzyloxyimino)-ethyl]-2-ethyl-benzylamino}-propionic acid]: the ED50 in the assay on blood lymphocytes worked out at 0.07 mg/kg. The compound further showed an EC50 at human EDG-1 (S1P1) of 0.8 nM.

A word on the ED50: it is the dose that gives a 50% effect, or the effect in half of the subjects. As usually defined, the EC50 is the concentration at which the effect is half-maximal.
